Measurements as given in a melting point compilation (Tetko et al.; mined from patent text by program, amines drawn as free bases though some values may be those of a salt).

First: CN1CCN(C(=O)c2c(Br)c(Br)c([N+](=O)[O-])c3c2OCCO3)CC1
Second: CN1CCc2c(Cl)ccc3c4c(n(c23)CC1)CCC4
The melting point of the first is higher: 164 °C for the first, 138 to 140 °C for the second.

Compared with CC(C)c1ccc2[nH]c(=O)c(C(=O)c3ccccc3)c(O)c2c1, CCc1c(-c2cc(C)c(O)c(C)c2)[nH]c2ccccc12 is lower in melting point: 270 °C for the first, 107 °C for the second.

Compared with COC(=O)C=C(C)c1ccc(CCC(C)(C)NCC(O)c2ccccc2)cc1 (stereo not drawn), CC(C)(Oc1ccc(NC(=O)Cc2ccccc2)cc1)C(=O)O is higher in melting point: 98 to 102 °C for the first, 173 to 175 °C for the second.

First: C#Cc1cccc(Nc2ncnc3ccc(S(=O)(=O)n4ccc(C=CC(=O)Nc5ccccc5NC(=O)OC(C)(C)C)c4)cc23)c1
Second: O=C(/C=C/c1ccc2ccccc2c1)Nc1cc(Cl)ccc1NC(=O)C(F)(F)F
The melting point of the first is lower: 146 to 150 °C for the first, 179 to 185 °C for the second.

First: Clc1nsnc1-c1ccccc1
Second: Clc1nc2ccccc2c2[nH]cnc12
The melting point of the first is lower: 33 °C for the first, 257 to 258 °C for the second.

Compared with CC(C)NCC(O)C(Oc1ccccc1)c1ccccc1 (stereo not drawn), S=c1nc(-c2ccc(-c3ccccc3)cc2)[nH]n1Cc1ccccc1 is higher in melting point: 95 to 96 °C for the first, 249 to 250 °C for the second.

Compared with Cc1cccc(C)c1-c1cc(C(N)=O)ccc1C(N)=O, CC(=O)Nc1cccc2c(Br)ccc(C)c12 is lower in melting point: 246 to 248 °C for the first, 227 to 229 °C for the second.

Compared with COc1nccnc1NS(=O)(=O)c1scc(Cl)c1Cl, Nc1cscc1NC(=S)Nc1c(Cl)csc1Cl is lower in melting point: 152 °C for the first, 110 to 115 °C for the second.

First: Cc1cc(=O)[nH]c2ccc(OCCCN3CCN(Cc4ccc(C(C)(C)C)cc4)CC3)cc12
Second: O=C(C=Cc1ccc(-c2ccc(OCCCN3CCCCC3)cc2)cc1)N1CCCCC1
The melting point of the first is higher: 171 to 172 °C for the first, 146 to 150 °C for the second.

First: CS(=O)(=O)c1ccc(-n2ncc(C#N)c2-c2ccc(-c3ccco3)cc2)cc1
Second: CC1(C)OC(=O)C(Oc2cccc(F)c2)=C1c1ccc(S(C)(=O)=O)cc1
The melting point of the first is higher: 229 to 230 °C for the first, 136 to 138 °C for the second.

First: C=CCNC(=O)C1CCc2cc(-c3ccccc3)ccc2O1 (stereo not drawn)
Second: Cc1c(C)c2c(c(C)c1N)C(c1ccc(-c3ccccc3)cc1)CO2 (stereo not drawn)
The melting point of the first is lower: 123 to 124 °C for the first, 149 to 150 °C for the second.

Compared with Cc1ccc(C(CO)c2ccc(C(C)C)cc2)c(O)c1C (stereo not drawn), CCCCCCc1c(C(C)C)nc(C(C)C)c(CO)c1-c1ccccc1 is lower in melting point: 83 to 84 °C for the first, 71 to 72 °C for the second.

First: O=C1CCc2cc(-n3ccnc3)ccc21
Second: O=C1CC(c2cccc(-n3ccnc3)c2)=Nc2cc(O)c(-c3ccc(F)cc3)cc2N1
The melting point of the first is lower: 148 to 150 °C for the first, 250 °C for the second.

Compared with O=C1NN=C(c2ccc3c(c2)C2(CCCS2)C(=O)N3)CS1 (stereo not drawn), O=C1Nc2c(ccc3c2CCNC3)C1=O is lower in melting point: 284 °C for the first, 270 °C for the second.

First: NC1=NC(c2ccc(OC(F)(F)F)cc2)(c2cccc(CCC3CC3)c2)C2=NCCCN12 (stereo not drawn)
Second: Nc1nc(N)n(CCCOc2cccc(CN3CCCCC3)c2)n1
The melting point of the first is lower: 65 to 77 °C for the first, 100 °C for the second.

Compared with COc1cc2c(C)c(C#N)c(SC)nc2cc1OC(C)=O, COc1cc(OC)c2c(=O)cc(C(C)(C)C(N)=O)oc2c1 is lower in melting point: 225 to 230 °C for the first, 217 to 219 °C for the second.

Compared with CC(C)(C)OC(=O)N1CCn2c(cc3ccccc32)C1, Cc1nc(N2CCc3ccccc3CC2)c(C#N)c(=O)n1NC(=O)OC(C)(C)C is higher in melting point: 103 to 105 °C for the first, 150 to 152 °C for the second.

Compared with CC(=O)C(Cc1ccccc1)(N=Nc1ccc(C(O)(C(F)(F)F)C(F)(F)F)cc1)C(N)=O (stereo not drawn), CCOC(=O)c1c(S(=O)(=O)c2ccccc2)cc(C(F)(F)F)nc1C(F)(F)F is lower in melting point: 128 to 133 °C for the first, 48 to 50 °C for the second.

Compared with COc1cc(OC)cc(C(=CC#N)c2ccc(OC)c(N)c2)c1, COc1ccc(C=C2C(=O)c3cc(O)ccc3OC2c2ccc(OC)cc2)cc1 (stereo not drawn) is higher in melting point: 93 to 95 °C for the first, 199 to 201 °C for the second.

First: CCn1c2ccc(C=O)cc2c2cc(C=C(c3ccccc3)c3ccccc3)ccc21
Second: O=C(O)c1ccc(OCCCc2ccc(OCc3ccccc3)cc2)cc1
The melting point of the first is higher: 166 to 167 °C for the first, 128 to 130 °C for the second.

First: NN1CN=Cc2c(NC3OC(CO)C(O)C3O)ncnc21 (stereo not drawn)
Second: CCOC(=O)c1ccc(N2CCC(NC[C@H](O)COc3ccc(O)c(S(=O)(=O)NC)c3)CC2)cc1
The melting point of the first is higher: 209 to 214 °C for the first, 87 °C for the second.

First: CCCCOCCOc1ccc(-c2ccc3c(c2)C=C(C(=O)Nc2ccc(C(O)c4cc(C)ccn4)cc2)CCN3C(=O)C(F)(F)F)cc1 (stereo not drawn)
Second: COc1ccc(-c2ccc3c(c2)C=C(C(=O)Nc2ccc(CN(C)C4CCC5(CC4)OCCO5)cc2)CCS3(=O)=O)cc1
The melting point of the first is lower: 101 to 105 °C for the first, 222 to 228 °C for the second.

First: O=[N+]([O-])c1cc(C(F)(F)F)cc2c(Cl)ccnc12
Second: Cc1nn(C)c2cnc(-c3ccc(C(F)(F)F)cc3)nc12
The melting point of the first is lower: 100 to 107 °C for the first, 286 to 289 °C for the second.

First: Cc1c(Cl)nn(-c2ccc(Cl)cc2)c1Cl
Second: Cc1nc2c(OCc3c(Cl)ccc(N(C)C)c3Cl)cccn2c1Br
The melting point of the first is lower: 90 to 91.5 °C for the first, 120 to 122 °C for the second.

First: CC1(COCc2ccccc2)COC(c2ccc([N+](=O)[O-])cc2)=N1 (stereo not drawn)
Second: N#CCc1cccc2c(-c3ccc([N+](=O)[O-])cc3)nccc12
The melting point of the first is lower: 65 to 66 °C for the first, 219 °C for the second.

Compared with COc1ccc(-c2cc(OC3SCC(OC(C)=O)C(OC(C)=O)C3OC(C)=O)ccn2)cc1 (stereo not drawn), CC(=O)SCCC(=O)N1N=C(c2ccc(S(N)(=O)=O)cc2)CC1C(=O)O (stereo not drawn) is higher in melting point: 113 to 114 °C for the first, 183 to 185 °C for the second.

Compared with COc1cccc(Oc2c(NCCOc3ncccn3)ncnc2NS(=O)(=O)c2ccc(C(C)(C)C)cc2)c1, CC(C)(C)c1cccc(S(=O)(=O)n2c(Cc3ccc(C4=NOC(=O)C4)cc3)cc3cc(C(F)(F)F)ccc32)c1 is lower in melting point: 148 to 149 °C for the first, 70 °C for the second.

Compared with Cn1cncc1C(O)(c1ccc(Cl)cc1)c1ccc2c(c1)C(c1cccc(Cl)c1)SCc1nnnn1-2 (stereo not drawn), Clc1ccc(Cn2ccc3cc(OCc4nnn[nH]4)ccc32)cc1 is lower in melting point: 217 °C for the first, 162 to 163 °C for the second.

First: CCN(CC)CCNC(=O)c1[nH]c(-c2ccc(Cl)cc2)c2ccccc12
Second: CCCN(CCC)C(=O)C(C)n1c(-c2ccc(Cl)cc2)nc2cccnc21 (stereo not drawn)
The melting point of the first is lower: 51 to 54 °C for the first, 96 to 99 °C for the second.

First: O=C(CCc1nc(-c2ccccn2)no1)NC1CCN(Cc2ccc(Cl)c(F)c2)CC1
Second: CCCCc1nc(C)c(CC(=S)N2CCCC2)c(=O)n1Cc1ccc(-c2ccccc2-c2nnn[nH]2)cc1
The melting point of the first is higher: 132 °C for the first, 94.4 to 97.3 °C for the second.

First: N#Cc1cnc(Nc2ccc(OCCn3cnnc3)cc2)nc1-c1cccs1
Second: Cc1cc(-c2cn(-c3cccc(OCCn4ccnc4)c3)c3ncnc(N)c23)cc(C)c1O
The melting point of the first is higher: 228 °C for the first, 100 °C for the second.

Compared with O=C(O)CCCCCNC(=NC(=O)OCc1ccccc1)NC(=O)OCc1ccccc1, O=C(O)CCCCCCCCCCCCCCC(=O)ON1C(=O)c2ccccc2C1=O is higher in melting point: 93 °C for the first, 109 to 110 °C for the second.

First: C=C1CCC(C(O)C(N)=O)CC1 (stereo not drawn)
Second: CC(=O)Oc1cccc2c1CCNC2=O
The melting point of the first is lower: 127 to 129 °C for the first, 189 to 193 °C for the second.

First: Nc1ccccc1C(=O)NCCCn1cncn1
Second: CCCOc1ccccc1C(=O)CCC(=O)O
The melting point of the first is higher: 96 to 98 °C for the first, 77 to 79 °C for the second.

First: Cc1ccc2oc(Cc3nc4cc(C)ccc4o3)nc2c1
Second: CCOC(=O)c1cc(N)nc(SCc2ccc3ccccc3c2)n1
The melting point of the first is lower: 91 °C for the first, 188 to 189 °C for the second.

First: Cn1cnnc1SC1=C(c2cc(Cl)ccc2O)C2C=C(C(F)(F)F)C=CC2NC1=O (stereo not drawn)
Second: CCc1nc2c(C)cc(C)nc2n1Cc1ccc2oc(-c3ccccc3NS(=O)(=O)C(F)(F)F)c(Br)c2c1
The melting point of the first is higher: over 310 °C for the first, 90 to 95 °C for the second.

First: CCSc1ccc(-c2nccs2)c2c1C(=O)CC(C)C2 (stereo not drawn)
Second: Cc1cc(C2=NN(C(=O)C=CCC(=O)O)C(C)Cc3cc4c(cc32)OCO4)ccc1[N+](=O)[O-] (stereo not drawn)
The melting point of the first is lower: 117 to 118 °C for the first, 158 to 160 °C for the second.

First: O=C(O)C(O)(C(F)F)C(F)F
Second: Cc1ccc(C(=O)c2ccc(CC(=O)O)n2C)c(Cl)c1
The melting point of the first is lower: 72.5 to 73.5 °C for the first, 176 to 178 °C for the second.

Going from CC(C)(C)NS(=O)(=O)c1cnc(-c2cn(-c3cc(-c4ccc(C(F)(F)F)cc4)cc(C(F)(F)F)n3)cn2)s1 to COc1ccc(S(=O)(=O)N(CCNC(C)=O)c2ccc(C)cc2Cc2c(F)cccc2F)cc1OC, the melting point falls from 252 °C to 79.7 °C.

First: CC(Cl)(Cl)C(NC(=O)c1cccc(Cl)c1)NC(=NC#N)Nc1ccc(F)nc1 (stereo not drawn)
Second: CCC(=O)NN=C(c1ccc(Cl)cc1)c1ccc(OS(C)(=O)=O)cc1
The melting point of the first is lower: 124 to 125 °C for the first, 128 to 144 °C for the second.

First: Brc1ccc2c(c1)Sc1ccccc1CC2
Second: O=C1Nc2ccccc2C12COc1ccc3c(c12)OCCO3 (stereo not drawn)
The melting point of the first is lower: 69 to 71 °C for the first, 259 to 261 °C for the second.

First: COc1c(Nc2ncc(Cl)c(Nc3ccccc3S(=O)(=O)N(C)C)n2)ccc2c1CCC(NCC(F)F)CC2 (stereo not drawn)
Second: CN(C)CC(=O)Nc1cccc2c1C(=O)c1c-2n[nH]c1-c1ccc(N2CCNCC2)cc1
The melting point of the first is lower: 118 °C for the first, 243 °C for the second.

Compared with COc1cc(C(=O)NS(=O)(=O)c2ccccc2C)ccc1Cc1cccc2ccc(CCCC(=O)N3CCOCC3)cc12, Cc1c(N)cccc1-c1cn(C)c(=O)c(Nc2ccc(C3C(=O)N(C)CCN3C)cc2)n1 (stereo not drawn) is higher in melting point: 100 to 102 °C for the first, 133 to 134 °C for the second.

First: CCCCN1C(=O)[C@@H]2[C@H](C1=O)[C@H](c1ccc(C#N)cc1)N(C(C)=O)[C@H]2C (racemic)
Second: CC(=O)N1C(=O)OC[C@H]1c1ccccc1
The melting point of the first is higher: 140 to 141 °C for the first, 94 °C for the second.

First: COC(=O)c1cc2cc(NC(C)=O)ccc2o1
Second: Cc1cccc(C)c1NC(=O)CCSc1cc(C(C)(C)C)c(O)c(C(C)(C)C)c1
The melting point of the first is higher: 158 to 159 °C for the first, 142 to 144 °C for the second.

First: CC(C)(C)c1nc2cc3c(cc2[nH]1)NC(=O)C3(C)C
Second: Cc1nc[nH]c1CSCCNC1=NC(=O)C(C)(C)N1
The melting point of the first is higher: over 300 °C for the first, 232 to 236 °C for the second.

First: Nc1cnc(NCCSCc2csc(CN3CCCCC3)c2)[nH]c1=O
Second: CN(C)CCc1c[nH]c2ccc(CC3COC(=O)N3)cc12 (stereo not drawn)
The melting point of the first is higher: 150 to 155 °C for the first, 138 to 140 °C for the second.

First: CCCOc1ccc(C=CCCCCC(=O)O)cc1
Second: CCN(CC)CCC(=O)Nc1cccc2c1C(=O)c1c(NC(=O)CCN(CC)CC)cccc1C2=O
The melting point of the first is lower: 52 to 53 °C for the first, 166 to 167 °C for the second.

First: COc1ccc(C#N)c(C=C(C)N(C)C)n1
Second: Clc1cccc(C(Cl)Cl)n1
The melting point of the first is higher: 103 to 104 °C for the first, 48 to 52 °C for the second.
